Results reported in the Kinase Knowledgebase extract (Sharma et al. 2016).
Several values for one entry are separate records, joined by “and”; a condition that tells them apart may be missing. Equal entries are not always repeated.

What was measured:
MAPK14 (human) [1] = target: MAPK14 (human) (UniProt Q16539); assay: Inhibition of LPS Stimulated TNF Production by U937 Cells; conditions: for inhibition: concentration not given here
MAPK14 (human) [2] = target: MAPK14 (human) (UniProt Q16539); assay: Inhibition of MAPK14 Kinase Activity by PHAS-I Assay; conditions: for inhibition: concentration not given here

Sequence of MAPK14 (human) (Q16539 whole entry, looked up): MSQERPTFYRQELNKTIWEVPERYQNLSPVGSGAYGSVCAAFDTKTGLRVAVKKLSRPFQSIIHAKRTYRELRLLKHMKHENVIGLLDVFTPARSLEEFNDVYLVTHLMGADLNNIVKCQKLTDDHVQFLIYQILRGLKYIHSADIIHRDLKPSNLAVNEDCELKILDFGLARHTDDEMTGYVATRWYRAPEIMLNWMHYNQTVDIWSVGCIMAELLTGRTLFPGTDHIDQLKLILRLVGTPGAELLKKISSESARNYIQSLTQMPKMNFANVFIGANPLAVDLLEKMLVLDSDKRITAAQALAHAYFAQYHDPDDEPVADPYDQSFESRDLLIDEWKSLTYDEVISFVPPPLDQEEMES

IC50 (MAPK14 (human) [1]) | inhibition (MAPK14 (human) [2]) | IC50 (MAPK14 (human) [2]) | inhibition (MAPK14 (human) [1]) | Compound
1160 nM | 70% |  |  | COc1ccc(CC(=O)NCCCc2[nH]nc(-c3ccc(F)cc3)c2-c2ccncc2)cc1
> 1000 nM |  | 2400 nM |  | O=S(=O)(NCc1[nH]nc(-c2ccc(F)cc2)c1-c1ccncc1)C(F)(F)F
 | 67% |  | 36% | O=C(NCCc1[nH]nc(-c2ccc(F)cc2)c1-c1ccncc1)NC(=O)c1ccccc1
 | 83% |  | 21% | O=C(NCc1[nH]nc(-c2ccc(F)cc2)c1-c1ccncc1)c1cccc(CCl)c1
 | 67% |  | 25% | CC(C)=CC(=O)NCCc1[nH]nc(-c2ccc(F)cc2)c1-c1ccncc1
 | 88% |  | 20% | O=S(=O)(NCCc1[nH]nc(-c2ccc(F)cc2)c1-c1ccncc1)c1ccccc1
790 nM | 71% |  |  | COc1cccc(C(=O)NCCCc2[nH]nc(-c3ccc(F)cc3)c2-c2ccncc2)c1
 | 83% |  | 39% | O=C(NCCc1[nH]nc(-c2ccc(F)cc2)c1-c1ccncc1)Nc1cccc2ccccc12
> 10000 nM | 91% |  |  | Cc1c(-c2ccncc2)c(-c2ccc(F)cc2)nn1CC(=O)Nc1ccccc1OC(F)(F)F
 | 72% |  | 65% | O=C(NCCc1[nH]nc(-c2ccc(F)cc2)c1-c1ccncc1)C1CCC1
 | 53% |  | 14% | COc1ccccc1C(=O)NCCc1[nH]nc(-c2ccc(F)cc2)c1-c1ccncc1
 |  | 25 nM | 96% | Cc1cccc(S(=O)(=O)N[C@H](C)c2[nH]nc(-c3ccc(F)cc3)c2-c2ccncc2)c1
 | 80% |  | 61% | O=C(NCCCc1[nH]nc(-c2ccc(F)cc2)c1-c1ccncc1)Nc1cccc(F)c1
 | 42% |  | 13% | CCCCOc1ccc(NC(=O)NCc2[nH]nc(-c3ccc(F)cc3)c2-c2ccncc2)cc1
 | 44% |  | 21% | O=C(NCCc1[nH]nc(-c2ccc(F)cc2)c1-c1ccncc1)Nc1cc(Cl)cc(Cl)c1
 | 82% |  | 20% | O=C(NCCc1[nH]nc(-c2ccc(F)cc2)c1-c1ccncc1)Nc1ccc(C(F)(F)F)cc1
 | 69% |  | 38% | O=C(NCCc1[nH]nc(-c2ccc(F)cc2)c1-c1ccncc1)c1ccncc1
 | 62% |  | 57% | CC(=O)OCC(=O)NCCc1[nH]nc(-c2ccc(F)cc2)c1-c1ccncc1
 |  | < 100 nM | 26% | CC1(C)[C@H]2CC[C@@]1(CS(=O)(=O)NCCc1[nH]nc(-c3ccc(F)cc3)c1-c1ccncc1)C(=O)C2
 |  | 130 nM | 40% | CCN(CC)C(=O)NCc1[nH]nc(-c2ccc(F)cc2)c1-c1ccncc1
 | 65% |  | 25% | CCCCCc1cccc(C(C)NC(=O)Cn2nc(-c3ccc(F)cc3)c(-c3ccncc3)c2C)c1 (stereo not drawn)
 | 63% |  | 31% | COc1cccc(CC(=O)NCCc2[nH]nc(-c3ccc(F)cc3)c2-c2ccncc2)c1
1100 nM | 74% |  |  | CCOC(=O)CNC(=O)NCCc1[nH]nc(-c2ccc(F)cc2)c1-c1ccncc1
 | 61% |  | 39% | O=C(NCCc1[nH]nc(-c2ccc(F)cc2)c1-c1ccncc1)Nc1cc(Cl)ccc1Cl
 | 70% |  | 17% | COc1ccc(S(=O)(=O)NCCc2[nH]nc(-c3ccc(F)cc3)c2-c2ccncc2)cc1OC
3630 nM | 42% |  |  | O=S(=O)(NCc1[nH]nc(-c2ccc(F)cc2)c1-c1ccncc1)c1ccc(OC(F)(F)F)cc1
 |  | 1780 nM | 81% | COc1ccc(Br)cc1S(=O)(=O)N[C@@H](C)c1[nH]nc(-c2ccc(F)cc2)c1-c1ccncc1

IC50 (MAPK14 (human) [1]) | inhibition (MAPK14 (human) [2]) | IC50 (MAPK14 (human) [2]) | inhibition (MAPK14 (human) [1]) | Compound
2780 nM | 89% |  |  | N/C(=C(\N)S(=O)(=O)NCc1[nH]nc(-c2ccc(F)cc2)c1-c1ccncc1)c1ccccc1
 | 65% |  | 62% | O=C(NCCCc1[nH]nc(-c2ccc(F)cc2)c1-c1ccncc1)c1ccccc1C(F)(F)F
 | 70% |  | 71% | CC(=O)OC(C)(C)C(=O)NCCc1[nH]nc(-c2ccc(F)cc2)c1-c1ccncc1
 | 58% |  | 18% | Cc1ccc(S(=O)(=O)NCCc2[nH]nc(-c3ccc(F)cc3)c2-c2ccncc2)cc1
 | 77% |  | 34% | CC(C)S(=O)(=O)NCCc1[nH]nc(-c2ccc(F)cc2)c1-c1ccncc1
> 10000 nM | 45% |  |  | CCOC(=O)CC[C@H](NC(=O)Cn1nc(-c2ccc(F)cc2)c(-c2ccncc2)c1C)C(=O)OCC
 | 90% |  | 28% | Cc1c(-c2ccncc2)c(-c2ccc(F)cc2)nn1CC(=O)Nc1ccc(S(=O)(=O)C(F)F)cc1
 | 74% |  | 57% | O=S(=O)(NCCCc1[nH]nc(-c2ccc(F)cc2)c1-c1ccncc1)c1ccccc1
 | 78% |  | 79% | CC(=O)NCCc1[nH]nc(-c2ccc(F)cc2)c1-c1ccncc1
96.7 nM and 130 nM |  | 700 nM |  | Cn1cc(-c2ccncc2)c(-c2ccc(F)cc2)n1
 | 72% |  | 66% | O=C(NCCc1[nH]nc(-c2ccc(F)cc2)c1-c1ccncc1)Nc1cccc(F)c1
 | 48% |  | 35% | CC[C@H](NC(=O)Cn1nc(-c2ccc(F)cc2)c(-c2ccncc2)c1C)c1ccccc1
 | 68% |  | 41% | O=C(Cc1cccs1)NCCc1[nH]nc(-c2ccc(F)cc2)c1-c1ccncc1
 | 0% |  | 26% | O=C(NCCc1[nH]nc(-c2ccc(F)cc2)c1-c1ccncc1)c1cccc(Br)c1
 | 67% |  | 67% | COc1ccc(CC(=O)NCCCc2[nH]nc(-c3ccc(F)cc3)c2-c2ccncc2)cc1OC
 | 69% |  | 45% | O=C(NCc1[nH]nc(-c2ccc(F)cc2)c1-c1ccncc1)c1ccc(OC(F)(F)F)cc1
570 nM | 82% |  |  | CC(=O)O[C@H](C)C(=O)NCCCc1[nH]nc(-c2ccc(F)cc2)c1-c1ccncc1
 | 80% |  | 55% | CC(Oc1ccccc1)C(=O)NCCc1[nH]nc(-c2ccc(F)cc2)c1-c1ccncc1 (stereo not drawn)
> 10000 nM | 62% |  |  | Cc1c(-c2ccncc2)c(-c2ccc(F)cc2)nn1CC(=O)N(C)CCN(C)C
 | 63% |  | 25% | CCOC(=O)C(C)NC(=O)NCCc1[nH]nc(-c2ccc(F)cc2)c1-c1ccncc1 (stereo not drawn)
> 1000 nM |  | 550 nM |  | O=C(NCc1[nH]nc(-c2ccc(F)cc2)c1-c1ccncc1)N1CCCC1
 | 89% |  | 7% | Cc1cccc(OC(=O)c2ccc(NC(=O)Cn3nc(-c4ccc(F)cc4)c(-c4ccncc4)c3C)cc2)c1
> 10000 nM | 55% |  |  | Cc1c(-c2ccncc2)c(-c2ccc(F)cc2)nn1CC(=O)N(CC(C)C)CC(C)C
> 10000 nM | 32% |  |  | CCN1CCC(N(CC)C(=O)Cn2nc(-c3ccc(F)cc3)c(-c3ccncc3)c2C)C1 (stereo not drawn)
 | 89% |  | 63% | O=C(NCCc1[nH]nc(-c2ccc(F)cc2)c1-c1ccncc1)[C@H]1CCCN1
 |  | 170 nM | 76% | C[C@H](NS(=O)(=O)c1cc(Cl)cc(Cl)c1O)c1[nH]nc(-c2ccc(F)cc2)c1-c1ccncc1
2050 nM | 23% |  |  | O=C(NCc1[nH]nc(-c2ccc(F)cc2)c1-c1ccncc1)Nc1ccccc1F
